Measurements from patent publication US6168776A (priority 1997, dated 2001).
Entries after “also recorded” stand apart in the source; their conditions may differ. Values belong to the compound of their own block, whether it stands above or below them.

Columns and labels:
[1] = Staining of AD brain sections (fluorescence microscopy); parameters: species or system human; settings: in words
Experimental: 26: 241-242 (1973) with 1 mM 1,4-bis(3-carboxy-4-hydroxyphenylethenyl)-benzene substituted for Congo red, but the procedure was otherwise identical. Stained slides were examined using fluorescence microscopy.
(§1) The staining method was that of Stokes and Trickey, J. Clin. Pathol. 26: 241-242 (1973) with 1,4-bis(3-carboxy-4-hydroxyphenylethenyl)-benzene substituted for Congo red.

[2] = Staining of transgenic mouse brain section; settings: in words
Source text: FIG. 11. […] 26: 241-242 (1973). […] The photomicrograph was obtained using fluorescence microscopy.
as §1

Aβ(10-43) [3] = target: T1, Aβ(10-43) (Homo sapiens, UniProt P05067); assay: Inhibition of [14C] Chrysamine G binding to Aβ(10-43); settings: for binding activity to Aβ / Ki relative to Chrysamine G / potency/affinity relative to reference compound: in words; for potency/affinity relative to reference compound: vs Chrysamine G or, for Chrysamine G, vs Congo red; for energy of binding: ΔG=-RT ln Keq, from KD (Chrysamine G) or Ki (aniline derivative)
T1 sequence (P05067 681-714): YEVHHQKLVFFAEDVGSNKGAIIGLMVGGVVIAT

[4] = Scatchard analysis of [14C]CG binding to control brain homogenates
[5] = Total [14C] Chrysamine G binding to control brain homogenates; parameters: species or system human
[6] = [14C] Chrysamine G binding to Down's syndrome brain homogenates; parameters: species or system human; settings: two patients, FIG. 9C
Source text: FIGS. 9A, 9B and 9C. […] The data points represent the ratio of [^14 C] […] Horizontal bars represent the mean and error bars represent the standard error for control (circles), and AD brain (diamonds in 9A and 9B). […] Asterisks indicate significant differences compared to control (*p<0.05; **p<0.001). The diamonds in 9C represent a brain from a Down's syndrome patient not yet symptomatic with AD. The triangles in 9C represent a Down's syndrome patient who had developed AD as do the vast majority of Down's syndrome patients by their 40's.

Aβ(10-43) [7] = target: T1, Aβ(10-43); assay: Scatchard analysis of [14C] Chrysamine G binding to synthetic Aβ(10-43); settings: read-out: dissociation constant; approximately; whether by Scatchard analysis, kinetic methods, or inhibition of binding
[8] = Metabolism of [14C] Chrysamine G in mouse brain and liver
PC-12 cells = assay: Protection from Aβ(25-35)-induced toxicity in PC-12 cells (MTT reduction); settings: for protective effects in cells incubated with 1 μM Aβ(25-35): Chrysamine G at 0.1 and 1 μM, FIG. 14; for protective effect against Aβ(25-35)-induced decrease in MTT reduction: in words, FIGS. 12 and 13
[9] = Total [14C] Chrysamine G binding to AD brain homogenates; parameters: species or system human
[10] = Tissue levels after i.v. injection of [14C] Chrysamine G in mice (blood-brain barrier); assay type: in vivo, Swiss-Webster mice; settings: 15 to 35 min after i.v. injection
[11] = Correlation of [14C]CG binding with neuritic plaque (NP) and neurofibrillary tangle (NFT) counts; parameters: species or system human
Experimental: FIG. 8B is a graph illustrating the correlation between the amount of [^14 C] […] The filled symbols and heavy lines indicate brains without amyloid angiopathy, the open symbols and dashed lines indicate brains with amyloid angiopathy. The y-axis represents total, absolute [^14 C] […] Approximately 75 μg protein and 150 nM [^14 C] Chrysamine G were used.

[12] = Scatchard analysis of [14C]CG binding to AD brain homogenates
Aβ [13] = settings: cited from earlier work
amylin = settings: in words; cited from earlier work
Aβ [14] = settings: in words; cited from earlier work
[15] = Octanol/water partitioning; settings: 1-octanol / phosphate buffered saline pH 7.4
[16] = guinea pigs; Tubis et al.; cited from earlier work
[17] = in words; Tubis et al.; cited from earlier work

SMILES: O=C(O)c1cc(C=Cc2ccc(C=Cc3ccc(O)c(C(=O)O)c3)cc2)ccc1O [1,4-bis(3-carboxy-4-hydroxyphenylethenyl)-benzene]
staining relative to Chrysamine G, Congo red, or Thioflavin S ([1]; human AD brain): much more intense than that observed with Chrysamine G, Congo red, or Thioflavin S
staining of human AD brain [1]: Numerous amyloid plaques and neuropil threads can be readily identified as well as a neurofibrillary tangle; also recorded: Visible are a large number of neuritic plaques, a neurofibrillary tangle and frequent neuropil threads
staining of plaque in transgenic mouse brain [2]: intensely stained plaque

SMILES: O=C(O)c1cc(N=Nc2ccc(-c3ccc(N=Nc4ccc(O)c(C(=O)O)c4)cc3S(=O)(=O)O)c(S(=O)(=O)O)c2)ccc1O [2,2'-(SO3)2 CG]
binding activity to Aβ (Aβ(10-43) [3]): inactivity

SMILES: O=C(O)c1cc(N=Nc2ccc(-c3ccc(N=Nc4ccc(O)c(C(=O)O)c4)c(Br)c3)cc2Br)ccc1O [3,3'-Br2 CG]
Ki relative to Chrysamine G (Aβ(10-43) [3]): about half that of Chrysamine G

SMILES: Nc1c(/N=N/c2ccc(-c3ccc(/N=N/c4cc(S(=O)(=O)O)c5ccccc5c4N)cc3)cc2)cc(S(=O)(=O)O)c2ccccc12 [Congo red]
effect on Aβ-induced neurotoxicity and cell degeneration (Aβ [13]; in vitro, in words): inhibits fibrillar Aβ neurotoxicity; also recorded: inhibits Aβ-induced neurotoxicity and cell degeneration in vitro
concentration for complete protection from Aβ-induced toxicity (Aβ [13]; literature): ≤ 20 µM
concentration over which Aβ-induced toxicity is protected against (Aβ [13]; literature): over 2 μM
effect on amylin toxicity to pancreatic islet cells (amylin): inhibit pancreatic islet cell toxicity of diabetes-associated amylin; also recorded: protect pancreatic islet cells from the toxicity caused by amylin
effect on aggregation of Aβ (Aβ [14]): does inhibit aggregation of Aβ
octanol/water partition coefficient [15]: 0.665±0.037
brain/kidney ratio [16]: approximately 0.07
crossing of the blood-brain barrier [17]: does not cross the blood-brain barrier well

SMILES: Oc1ccc(N=Nc2ccc(-c3ccc(N=Nc4ccc(O)cc4)cc3)cc2)cc1 [phenol derivative]
binding activity to Aβ (Aβ(10-43) [3]): completely destroyed binding affinity; also recorded: does not bind to synthetic Aβ
protective effects in cells incubated with 1 μM Aβ(25-35) (PC-12 cells): no protective effects, and perhaps enhanced the toxicity of Aβ
protective effect against Aβ(25-35)-induced decrease in MTT reduction (PC-12 cells): does not prevent Aβ-induced cytotoxicity

SMILES: O=C(O)c1ccccc1O [salicylic acid]
binding activity to Aβ (Aβ(10-43) [3]): total lack of binding activity; also recorded: inactivity

Now from value to compound, other results behind:

loss of activity from Chrysamine G (fold) (Aβ(10-43) [3]; vs Chrysamine G): 7 fold
SMILES: O=C(O)c1cc(N=Nc2ccc(-c3ccc(N=Nc4ccc(O)c(C(=O)O)c4)c(C(=O)O)c3)cc2C(=O)O)ccc1O [3,3'-(COOH)2 CG]

Ki relative to Chrysamine G (Aβ(10-43) [3]): about half that of Chrysamine G
SMILES: O=C(O)c1cc(N=Nc2ccc(-c3ccc(N=Nc4ccc(O)c(C(=O)O)c4)c(Cl)c3)cc2Cl)ccc1O [3,3'-Cl2 CG]

Ki relative to Chrysamine G (Aβ(10-43) [3]): about half that of Chrysamine G
SMILES: O=C(O)c1cc(N=Nc2ccc(-c3ccc(N=Nc4ccc(O)c(C(=O)O)c4)c(I)c3)cc2I)ccc1O [3,3'-I2 CG]

potency/affinity relative to reference compound (Aβ(10-43) [3]): slightly more potent than Chrysamine G
SMILES: O=C(O)c1cc(N=Nc2ccc(-c3ccc(N=Nc4ccc(O)c(C(=O)O)c4)c(I)c3)cc2)ccc1O [3-ICG]

potency/affinity relative to reference compound (Aβ(10-43) [3]): one-third as potent
SMILES: O=C(O)c1cc(F)cc(N=Nc2ccc(-c3ccc(N=Nc4cc(F)cc(C(=O)O)c4O)cc3)cc2)c1O [(5-FSA)CG]

potency/affinity relative to reference compound (Aβ(10-43) [3]): highest affinity compound in this series
SMILES: O=C(O)c1c(O)ccc(N=Nc2ccc(-c3ccc(N=Nc4ccc(O)c(C(=O)O)c4O)cc3)cc2)c1O [(6-OHSA)CG]

energy of binding (Aβ(10-43) [3]): roughly 38 KJ/mole
Bmax (Table 1) ([4]; Control, n = 6): 0.576 ± .092 pmol/μg prot
Bmax ([4]; typical control brain sample, FIG. 4B): 614 fmol/μg protein
total binding ([5]; Cerebellum, Control (n = 8)): 75 ± 13 fmol/μg protein
total binding ([5]; Frontal Pole, Control (n = 6)): 58 ± 8 fmol/μg protein
total binding ([5]; Head of Caudate, Control (n = 4)): 73 ± 11 fmol/μg protein
total binding ([5]; Inferior Parietal, Control (n = 8)): 76 ± 13 fmol/μg protein
total binding ([5]; Occipital, Control (n = 8)): 64 ± 16 fmol/μg protein
total binding ([5]; Superior Temporal, Control (n = 8)): 66 ± 17 fmol/μg protein
total binding ([5]; Superior/Middle Frontal, Control (n = 8)): 54 ± 10 fmol/μg protein
binding in Down's syndrome brain vs control [6]: above the control range
Kd (Aβ(10-43) [7]): 250 to 400 nM
radioactivity that is unchanged Chrysamine G ([8]; 60 min, in words): essentially all
remaining at 1 h ([8]; mouse, iv, 0.05 uCi/g): > 95%
saturable (specific) binding, share of total binding ([9]; AD brain homogenates): 60-80%
total binding ([9]; Cerebellum, AD (n = 11)): 73 ± 9 fmol/μg protein
total binding ([9]; Frontal Pole, AD (n = 10), p < 0.006): 124 ± 16 fmol/μg protein
total binding ([9]; Head of Caudate, AD (n = 7), p = 0.14): 123 ± 22 fmol/μg protein
total binding ([9]; Inferior Parietal, AD (n = 11), p < 0.03): 137 ± 19 fmol/μg protein
total binding ([9]; Occipital, AD (n = 11), p = 0.1): 95 ± 12 fmol/μg protein
total binding ([9]; Superior Temporal, AD (n = 11), p < 0.02): 121 ± 14 fmol/μg protein
total binding ([9]; Superior/Middle Frontal, AD (n = 11), p < 0.005): 130 ± 21 fmol/μg protein
saturable and total binding vs control ([9]; in words): greater in AD brain than in control
radioactivity in brain over time [10]: stayed nearly constant
correlation of binding with NPs (r) ([11]; AD brains alone, p=0.007): 0.59
correlation of binding with NFTs (r) ([11]; AD brains alone, p=0.026): 0.50
correlation of binding with NP counts (r) ([11]; brains with cerebrovascular amyloid deposits, p=0.15): 0.49
correlation of binding with NP counts (r) ([11]; brains without amyloid angiopathy, p=0.01): 0.79
correlation of binding with NFTs (r) ([11]; controls included, p=0.001): 0.60
correlation of binding with NPs (r) ([11]; controls included, p=0.001): 0.69
Bmax (Table 1) ([12]; AD, n = 5): 0.784 ± .061 pmol/μg prot
Bmax in AD brain higher than control ([12]; not significant (p=0.09)): 36%
KD in AD brain lower than control ([12]; not significant (p=0.29)): 16%
Bmax ([12]; typical AD brain sample, 48 NP/×200, FIG. 4B): 790 fmol/μg protein
SMILES: O=C(O)c1cc(N=Nc2ccc(-c3ccc(N=Nc4ccc(O)c(C(=O)O)c4)cc3)cc2)ccc1O [Chrysamine G, 4,4'-bis(3-carboxy-4-hydroxyphenylazo)-biphenyl]
concentration range showing protective effects (PC-12 cells; Aβ(25-35)): 0.1 to 1.0 µM
protective effects in cells incubated with 1 μM Aβ(25-35) (PC-12 cells): protective effects at 0.1 and 1 μM
protective effect against Aβ(25-35)-induced decrease in MTT reduction (PC-12 cells): dose-dependent, protective effect; also recorded: protective effect which is dependent on both the concentration of Aβ(25-35) (FIG. 12) as well as the concentration of Chrysamine G; also recorded: prevents Aβ-induced cytotoxicity
effect on MTT reduction in the absence of Aβ(25-35) (PC-12 cells; vs control, FIG. 13): no significant difference

binding activity to Aβ (Aβ(10-43) [3]): decrease in affinity
energy of binding (Aβ(10-43) [3]): 5.5 kcal/mol
SMILES: O=C(O)c1cc(N=Nc2ccccc2)ccc1O [aniline derivative]
